Results as given in patent US20230109758A1 (priority 2018, published 2023).

Assays:
C. beijerinckii DSM 6423 = type: cell-based
[1] = system: C. beijerinckii DSM 6423 ΔcatB; type: cell-based

## CS(=O)(=O)c1ccc([C@@H](O)[C@@H](CO)NC(=O)C(Cl)Cl)cc1 [thiamphenicol]
C. beijerinckii DSM 6423
  Growth on thiamphenicol-supplemented medium: able to grow
[1]
  Growth on thiamphenicol-supplemented medium: only the initial C. beijerinckii DSM 6423 strain is able to grow
